Measured values as given in US11242337B2, “Compounds useful for treating gastrointestinal tract disorders” (Ardelyx, Inc., priority 2017, dated 2022).

Legend:
NHE3 [1] = molecular target: T1, NHE3 (Homo sapiens, UniProt P48764); experiment: Cell-based assay of NHE-3 activity (pre-incubation inhibition), human; details: human Preincubation
T1 construct: expressed in transfected cells
T1 sequence (P48764 26-834): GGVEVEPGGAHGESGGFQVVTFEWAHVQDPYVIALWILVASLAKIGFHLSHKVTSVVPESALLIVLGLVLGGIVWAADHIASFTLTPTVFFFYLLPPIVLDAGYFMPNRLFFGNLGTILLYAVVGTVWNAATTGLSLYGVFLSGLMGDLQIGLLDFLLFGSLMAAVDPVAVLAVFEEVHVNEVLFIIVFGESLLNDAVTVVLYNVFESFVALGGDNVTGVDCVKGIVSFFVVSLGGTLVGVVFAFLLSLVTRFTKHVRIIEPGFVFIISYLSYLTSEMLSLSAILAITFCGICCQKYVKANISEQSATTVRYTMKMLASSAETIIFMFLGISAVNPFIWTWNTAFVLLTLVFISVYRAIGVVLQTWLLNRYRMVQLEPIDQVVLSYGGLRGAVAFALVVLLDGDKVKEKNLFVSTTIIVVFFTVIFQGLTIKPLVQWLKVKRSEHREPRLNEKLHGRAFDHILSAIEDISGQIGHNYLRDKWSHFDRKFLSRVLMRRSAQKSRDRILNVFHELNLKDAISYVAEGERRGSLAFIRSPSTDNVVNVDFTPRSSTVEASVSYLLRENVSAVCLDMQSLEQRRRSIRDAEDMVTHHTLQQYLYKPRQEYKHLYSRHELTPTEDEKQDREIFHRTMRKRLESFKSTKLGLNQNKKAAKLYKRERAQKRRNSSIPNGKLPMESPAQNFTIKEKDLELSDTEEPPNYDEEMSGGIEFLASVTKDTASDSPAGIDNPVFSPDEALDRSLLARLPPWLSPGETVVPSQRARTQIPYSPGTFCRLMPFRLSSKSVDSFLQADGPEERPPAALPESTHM
T1 sequence (Q99653 2-195 partner limits assumed): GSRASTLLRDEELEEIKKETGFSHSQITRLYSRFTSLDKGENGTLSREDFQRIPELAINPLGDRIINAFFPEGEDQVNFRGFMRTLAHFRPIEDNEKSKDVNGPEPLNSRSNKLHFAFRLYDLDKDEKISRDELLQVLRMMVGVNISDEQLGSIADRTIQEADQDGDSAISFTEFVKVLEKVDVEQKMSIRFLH
Procedure, shortened: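 PS120 fibroblasts stably expressing human NHE3 and NHERF2, loaded 30 min at 37 °C with 5 μM BCECF-AM in NH4Cl buffer, then acidified 10 min at room temperature in Na+-free buffer with 0–30 μM compound. Initial rate of BCECF fluorescence ratio change (FLIPR) per minute taken as Na+/H+ activity.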

NHE3 [2] = molecular target: T1, NHE3; experiment: Cell-based assay of NHE-3 activity (persistent inhibition), human; details: human Persistence, 60 min incubation then washout
Procedure, shortened: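 PS120 fibroblasts expressing human NHE3 with NHERF2 exposed to 0-30 μM compound for 60 min at RT, then washed out; cells acid-loaded by NH4Cl prepulse with BCECF-AM and Na+-free buffer. Na+-driven pH recovery started 10 min post-washout; initial rate of BCECF ratio change (FLIPR) taken as activity.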

| Compound | % inhibition (NHE3 [1]) | pIC50 (NHE3 [1]; 0-30 μM test compound) | % inhibition (NHE3 [2]) | IC50 (NHE3 [2]) | IC50 (NHE3 [1]; 0-30 μM test compound) | pIC50 (NHE3 [2]) |
| --- | --- | --- | --- | --- | --- | --- |
| N#Cc1cc(Cl)cc2c1C[C@H](N1CCNCC1)[C@H]2Oc1ccc(S(=O)(=O)NC(=O)CCCNC(=O)NCCCCNC(=O)NCCCC(=O)NS(=O)(=O)c2ccc(O[C@H]3c4cc(Cl)cc(C#N)c4C[C@@H]3N3CCNCC3)cc2)cc1 [Example 124, N^1,N^18-Bis([4-([(1S,2S)-6-chloro-4-cyano-2-(piperazin-1-yl)-2,3-dihydro-1H-inden-1-yl]oxy)phenyl]sulfonyl)-6,13-dioxo-5,7,12,14-tetraazaoctadecanediamide] | C (>70%) | C (NHE3 pIC50 > 7) | C (>70%) | 100 to 1000 nM | – | – |
| N#Cc1cc(Cl)cc2c1C[C@H](N1CCCNCC1)[C@H]2Oc1ccc(S(=O)(=O)N[C@@H]2CCN(CCOCCNC(=O)NCCCCNC(=O)NCCOCCN3CC[C@@H](NS(=O)(=O)c4ccc(O[C@H]5c6cc(Cl)cc(C#N)c6C[C@@H]5N5CCCNCC5)cc4)C3)C2)cc1 [Example 127, 4-([(1S,2S)-6-Chloro-4-cyano-2-(1,4-diazepan-1-yl)-2,3-dihydro-1H-inden-1-yl]oxy)-N—[(R)-1-(20-[(R)-3-([4-([(1S,2S)-6-chloro-4-cyano-2-(1,4-diazepan-1-yl)-2,3-dihydro-1H-inden-1-yl]oxy)phenyl]sulfonamido)pyrrolidin-1-yl]-7,14-dioxo-3,18-dioxa-6,8,13,15-tetraazaicosyl)pyrrolidin-3-yl]benzenesulfonamide; bis(trifluoroacetic acid)] | C (>70%) | – | A (NHE3 < 40%) | < 100 nM | < 100 nM | – |
| CN1CCCN([C@H]2Cc3c(C#N)cc(Cl)cc3[C@@H]2Oc2ccc(S(=O)(=O)N[C@H]3CCN(CCOCCNC(=O)NCCCCNC(=O)NCCOCCN4CC[C@H](NS(=O)(=O)c5ccc(O[C@H]6c7cc(Cl)cc(C#N)c7C[C@@H]6N6CCCN(C)CC6)cc5)C4)C3)cc2)CC1 [Example 128, 4-([(1S,2S)-6-Chloro-4-cyano-2-(4-methyl-1,4-diazepan-1-yl)-2,3-dihydro-1H-inden-1-yl]oxy)-N—[(S)-1-(20-[(S)-3-([4-([(1S,2S)-6-chloro-4-cyano-2-(4-methyl-1,4-diazepan-1-yl)-2,3-dihydro-1H-inden-1-yl]oxy)phenyl]sulfonamido)pyrrolidin-1-yl]-7,14-diaxo-3,18-dioxa-6,8,13,15-tetraazaicosyl)pyrrolidin-3-yl]benzenesulfonamide] | A (NHE3 < 40%) | A (NHE3 pIC50 < 6) | A (NHE3 < 40%) | – | – | C (NHE3 pIC50 > 7) |
| CN1CCCN([C@H]2Cc3c(C#N)cc(Cl)cc3[C@@H]2Oc2ccc(S(=O)(=O)N[C@@H]3CCN(CCOCCNC(=O)NCCCCNC(=O)NCCOCCN4CC[C@@H](NS(=O)(=O)c5ccc(O[C@H]6c7cc(Cl)cc(C#N)c7C[C@@H]6N6CCCN(C)CC6)cc5)C4)C3)cc2)CC1 [Example 129] | A (NHE3 < 40%) | A (NHE3 pIC50 < 6) | A (NHE3 < 40%) | – | – | C (NHE3 pIC50 > 7) |
| N#Cc1cc(Cl)cc2c1C[C@H](N1C[C@@H]3C[C@H]1CN3)[C@H]2Oc1ccc(S(=O)(=O)N[C@H]2CCN(CCOCCNC(=O)NCCCCNC(=O)NCCOCCN3CC[C@H](NS(=O)(=O)c4ccc(O[C@H]5c6cc(Cl)cc(C#N)c6C[C@@H]5N5C[C@@H]6C[C@H]5CN6)cc4)C3)C2)cc1 [Example 130, 4-([(1S,2S)-2-[(1S,4S)-2,5-Diazabicyclo[2.2.1]heptan-2-yl]-6-chloro-4-cyano-2,3-dihydro-1H-inden-1-yl]oxy)-N—[(S)-1-(20-[(S)-3-[(4-([(1S,2S)-2-[(1S,4S)-2,5-diazabicyclo[2.2.1]heptan-2-yl]-6-chloro-4-cyano-2,3-dihydro-1H-inden-1-yl]oxy)phenyl]sulfonamido)pyrrolidin-1-yl]-7,14-dioxo-3,18-dioxa-6,8,13,15-tetraazaicosyl)pyrrolidin-3-yl]benzenesulfonamide; bis(trifluoroacetic acid)] | B (40-70%) | C (NHE3 pIC50 > 7) | C (>70%) | 100 to 1000 nM | – | – |
| N#Cc1cc(Cl)cc2c1C[C@H](N1C[C@@H]3C[C@H]1CN3)[C@H]2Oc1ccc(S(=O)(=O)N[C@@H]2CCN(CCOCCNC(=O)NCCCCNC(=O)NCCOCCN3CC[C@@H](NS(=O)(=O)c4ccc(O[C@H]5c6cc(Cl)cc(C#N)c6C[C@@H]5N5C[C@@H]6C[C@H]5CN6)cc4)C3)C2)cc1 [Example 131, 4-([(1S,2S)-2-[(1S,4S)-2,5-Diazabicyclo[2.2.1]heptan-2-yl]-6-chloro-4-cyano-2,3-dihydro-1H-inden-1-yl]oxy)-N—[(R)-1-(20-[(R)-3-([4-([(1S,2S)-2-[(1S,4S)-2,5-diazabicyclo[2.2.1]heptan-2-yl]-6-chloro-4-cyano-2,3-dihydro-1H-inden-1-yl]oxy)phenyl]sulfonamido)pyrrolidin-1-yl]-7,14-dioxo-3,18-dioxa-6,8,13,15-tetraazaicosyl)pyrrolidin-3-yl]benzenesulfonamide; bis(trifluoroacetic acid)] | C (>70%) | C (NHE3 pIC50 > 7) | C (>70%) | 100 to 1000 nM | – | – |
| C[C@H]1CN([C@H]2Cc3c(C#N)cc(Cl)cc3[C@@H]2Oc2ccc(S(=O)(=O)N[C@H]3CCN(CCOCCNC(=O)NCCCCNC(=O)NCCOCCN4CC[C@H](NS(=O)(=O)c5ccc(O[C@H]6c7cc(Cl)cc(C#N)c7C[C@@H]6N6CCN[C@@H](C)C6)cc5)C4)C3)cc2)CCN1 [Example 134, 4-([(1S,2S)-6-Chloro-4-cyano-2-[(S)-3-methylpiperazin-1-yl]-2,3-dihydro-1H-inden-1-yl]oxy)-N—[(S)-1-(20-[(S)-3-([4-([(1S,2S)-6-chloro-4-cyano-2-[(S)-3-methylpiperazin-1-yl]-2,3-dihydro-1H-inden-1-yl]oxy)phenyl]sulfonamido)pyrrolidin-1-yl]-7,14-dioxo-3,18-dioxa-6,8,13,15-tetraazaicosyl)pyrrolidin-3-yl]benzenesulfonamide; bis(trifluoroacetic acid)] | C (>70%) | C (NHE3 pIC50 > 7) | C (>70%) | – | – | C (NHE3 pIC50 > 7) |
| C[C@H]1CN([C@H]2Cc3c(C#N)cc(Cl)cc3[C@@H]2Oc2ccc(S(=O)(=O)N[C@@H]3CCN(CCOCCNC(=O)NCCCCNC(=O)NCCOCCN4CC[C@@H](NS(=O)(=O)c5ccc(O[C@H]6c7cc(Cl)cc(C#N)c7C[C@@H]6N6CCN[C@@H](C)C6)cc5)C4)C3)cc2)CCN1 [Example 135] | C (>70%) | C (NHE3 pIC50 > 7) | C (>70%) | – | – | C (NHE3 pIC50 > 7) |
| C[C@@H]1CN([C@H]2Cc3c(C#N)cc(Cl)cc3[C@@H]2Oc2ccc(S(=O)(=O)N[C@H]3CCN(CCOCCNC(=O)NCCCCNC(=O)NCCOCCN4CC[C@H](NS(=O)(=O)c5ccc(O[C@H]6c7cc(Cl)cc(C#N)c7C[C@@H]6N6C[C@@H](C)N[C@@H](C)C6)cc5)C4)C3)cc2)C[C@H](C)N1 [Example 136] | C (>70%) | C (NHE3 pIC50 > 7) | C (>70%) | – | – | C (NHE3 pIC50 > 7) |
| C[C@@H]1CN([C@H]2Cc3c(C#N)cc(Cl)cc3[C@@H]2Oc2ccc(S(=O)(=O)N[C@@H]3CCN(CCOCCNC(=O)NCCCCNC(=O)NCCOCCN4CC[C@@H](NS(=O)(=O)c5ccc(O[C@H]6c7cc(Cl)cc(C#N)c7C[C@@H]6N6C[C@@H](C)N[C@@H](C)C6)cc5)C4)C3)cc2)C[C@H](C)N1 [Example 137, 4-([(1S,2S)-6-Chloro-4-cyano-2-[(3S,5R)-3,5-dimethylpiperazin-7-yl]-2,3-dihydro-1H-inden-1-yl]oxy)-N—[(R)-1-(20-[(R)-3-([4-([(1S,2S)-6-chloro-4-cyano-2-[(3S,5R)-3,5-dimethylpiperazin-1-yl]-2,3-dihydro-1H-inden-1-yl]oxy)phenyl]sulfonamido)pyrrolidin-1-yl]-7,14-dioxo-3,18-dioxa-6,8,13,15-tetraazaicosyl)pyrrolidin-3-yl]benzenesulfonamide; bis(trifluoroacetic acid)] | C (>70%) | C (NHE3 pIC50 > 7) | C (>70%) | – | – | C (NHE3 pIC50 > 7) |
